System: male codling moths
Test: Wind tunnel test, behavioral responses of male codling moths
Format: in vivo, Cydia pomonella (codling moth)
[1] = Example 6, mean percentage, 100000 μg alone
[2] = Example 5, 100 μg alone, initial values
[3] = Example 6, mean percentage, 100 μg alone

Structure (SMILES)	Oriented Flight of Males [1]	Source Contact of Males [1]	Upwind Response of Males [1]	Oriented Flight of Males [2]	Source Contact of Males [2]	Upwind Response of Males [2]	Oriented Flight of Males [3]	Source Contact of Males [3]	Upwind Response of Males [3]
CC(C)=CCC/C(C)=C/CC/C(C)=C/CO [E,E-farnesol]	0%	0%	25%	–	–	–	–	–	–
CCCCCOC(C)=O [amyl acetate]	5%	0%	30%	–	–	–	–	–	–
C/C=C/C=C/CCCCCCCO [codlemone, (E,E)-8,10-dodecadien-1-ol]	–	–	–	55	40	60	60%	50%	70%
CCCCCCCCCCCCO [dodecanol]	0%	0%	20%	–	–	–	–	–	–
CCOC(=O)CC(C)C [ethyl isovalerate, ethyl 3-methylbutanoate]	10%	0%	30%	–	–	–	–	–	–
COC(=O)c1ccccc1O [methyl salicylate]	0%	0%	25%	–	–	–	–	–	–
CCCCC/C=C\C=C\C(=O)OCC [pear ester, ethyl (2E,4Z)-decadienoate]	0%	0%	27%	–	–	–	–	–	–
